Results on 14 compounds are retold here after patent EP0659751A1, “Optically active azole derivatives, their production and use” (TAKEDA CHEMICAL INDUSTRIES, LTD., priority 1993, dated 1995).

As a reminder, the ED50 is the dose that gives a 50% effect, or the effect in half of the subjects. A low value points to an effect at a small dose.

The subject of the experiment is Candida albicans TA. Nature of the experiment: protective effect against experimental infection in mice. Particulars: po, 168 h; mice inoculated i.v. with minimum lethal dose of Candida albicans TA; suspension in 0.5% CMC administered orally once immediately after infection; Reed and Muench method from survival rate 7 days after infection. In kind it is in vivo, Crj:CDF₁ mice. The method, then: The protective effects of the compound of the present invention against the experimental infection in mice are shown in the following Table 1. Test Method: Five-week-old Crj:CDF₁ mice were inoculated with the minimum lethal dose of Candida albicans TA intravenously. The test compound was suspended in a solution of 0.5% sodium carboxymethylcellulose (CMC). The suspension was administered orally once immediately after infection. The activity was expressed in terms of ED₅₀ values calculated by the Reed and Muench method from the survival rate 7 days after infection.
On to `C[C@@H](n1ncn(-c2ccc(OCC(F)(F)F)cc2)c1=O)[C@](O)(Cn1cncn1)c1ccccc1F` [Example 19, 2-[(1R,2R)-2-(2-fluorophenyl)-2-hydroxy-1-methyl-3-(1H-1,2,4-triazol-1-yl)propyl]-4-[4-(2,2,2-trifluoroethoxy)phenyl]-3(2H,4H)-1,2,4-triazolone], for which the ED50 came to 0.18 mg/kg.
The compound `C[C@@H](n1ncn(-c2ccc(OC(F)(F)F)cc2)c1=O)[C@](O)(Cn1cncn1)c1ccccc1F` [Example 18, 2-[(1R,2R)-2-(2-fluorophenyl)-2-hydroxy-1-methyl-3-(1H-1,2,4-triazol-1-yl)propyl]-4-(4-trifluoromethoxyphenyl)-3(2H,4H)-1,2,4-triazolone] registered an ED50 of 0.18 mg/kg.
`C[C@@H](n1ncn(-c2ccc(OC(F)(F)C(F)F)cc2)c1=O)[C@](O)(Cn1cncn1)c1ccc(F)cc1` [Example 25, 2-[(1R,2R)-2-(4-fluorophenyl)-2-hydroxy-1-methyl-3-(1H-1,2,4-triazol-1-yl)propyl]-4-[4-(1,1,2,2-tetrafluoroethoxy)phenyl]-3(2H,4H)-1,2,4-triazolone] registered a 50% effective dose (ED50) of 0.65 mg/kg.
The result for `C[C@@H](n1ncn(-c2ccc(N3CCN(c4ccc(OC(F)(F)C(F)F)cc4)CC3)cc2)c1=O)[C@](O)(Cn1cncn1)c1ccc(F)cc1F` [Example 15, 2-[(1R,2R)-2-(2,4-difluorophenyl)-2-hydroxy-1-methyl-3-(1H-1,2,4-triazol-1-yl)propyl]-4-[4-[4-[4-(1,1,2,2-tetrafluoroethoxy)phenyl]-1-piperazinyl]phenyl]-3(2H,4H)-1,2,4-triazolone] reads 2.8 mg/kg; that for `Cc1nn([C@H](C)[C@](O)(Cn2cncn2)c2ccc(F)cc2)c(=O)n1-c1ccc(OC(F)(F)C(F)F)cc1` [Example 26, 2-[(1R,2R)-2-(4-fluorophenyl)-2-hydroxy-1-methyl-3-(1H-1,2,4-triazol-1-yl)propyl]-5-methyl-4-[4-(1,1,2,2-tetrafluoroethoxy)phenyl]-3(2H,4H)-1,2,4-triazolone], 0.35 mg/kg.
`Cc1nn([C@H](C)[C@](O)(Cn2cncn2)c2ccccc2F)c(=O)n1-c1ccc(OC(F)(F)C(F)F)cc1` [Example 21, 2-[(1R,2R)-2-(2-fluorophenyl)-2-hydroxy-1-methyl-3-(1H-1,2,4-triazol-1-yl)propyl]-5-methyl-4-[4-(1,1,2,2-tetrafluoroethoxy)phenyl]-3(2H,4H)-1,2,4-triazolone] displayed an ED50 of 0.21 mg/kg.
In the case of `C[C@@H](n1cnn(-c2ccc(OCC(F)(F)C(F)F)cc2)c1=O)[C@](O)(Cn1cncn1)c1ccccc1F` [Example 23, 4-[(1R,2R)-2-(2-fluorophenyl)-2-hydroxy-1-methyl-3-(1H-1,2,4-triazol-1-yl)propyl]-2-[4-(2,2,3,3-tetrafluoropropoxy)phenyl]-3(2H,4H)-1,2,4-triazolone] it was 0.16 mg/kg; in that of `C[C@@H](n1cnn(-c2ccc(OC(F)(F)C(F)F)cc2)c1=O)[C@](O)(Cn1cncn1)c1ccccc1F` [Example 22, 4-[(1R,2R)-2-(2-fluorophenyl)-2-hydroxy-1-methyl-3-(1H-1,2,4-triazol-1-yl)propyl]-2-[4-(1,1,2,2-tetrafluoroethoxy)phenyl]-3(2H,4H)-1,2,4-triazolone], less than 0.13 mg/kg; in that of `C[C@@H](n1cnn(-c2ccc(OC(F)(F)C(F)F)cc2)c1=O)[C@](O)(Cn1cncn1)c1ccc(F)cc1` [Example 27, 4-[(1R,2R)-2-(4-fluorophenyl)-2-hydroxy-1-methyl-3-(1H-1,2,4-triazol-1-yl)propyl]-2-[4-(1,1,2,2-tetrafluoroethoxy)phenyl]-3(2H,4H)-1,2,4-triazolone], 0.56 mg/kg.
Consider `C[C@@H](n1ncn(-c2ccc(OC(F)(F)C(F)F)cc2)c1=O)[C@](O)(Cn1cncn1)c1ccccc1F` [Example 20, 2-[(1R,2R)-2-(2-fluorophenyl)-2-hydroxy-1-methyl-3-(1H-1,2,4-triazol-1-yl)propyl]-4-[4-(1,1,2,2-tetrafluoroethoxy)phenyl]-3(2H,4H)-1,2,4-triazolone], for which it took a dose of 0.18 mg/kg to reach the 50% effect level (ED50).
As to `Cc1nn(-c2ccc(OC(F)(F)C(F)F)cc2)c(=O)n1[C@H](C)[C@](O)(Cn1cncn1)c1ccc(F)cc1F` [Example 29, 4-[(1R,2R)-2-(2,4-difluorophenyl)-2-hydroxy-1-methyl-3-(1H-1,2,4-triazol-1-yl)propyl]-5-methyl-2-[4-(1,1,2,2-tetrafluoroethoxy)phenyl]-3(2H,4H)-1,2,4-triazolone], the 50% effect level (ED50) was put at a dose of 2 mg/kg.
As for `C[C@@H](n1ncn(-c2ccc(OCC(F)(F)C(F)F)cc2)c1=O)[C@](O)(Cn1cncn1)c1ccccc1F` [Example 16, 2-[(1R,2R)-2-(2-fluorophenyl)-2-hydroxy-1-methyl-3-(1H-1,2,4-triazol-1-yl)propyl]-4-[4-(2,2,3,3-tetrafluoropropoxy)phenyl]-3(2H,4H)-1,2,4-triazolone], the ED50 came out at 0.25 mg/kg. This ED50 is about 8-fold lower than that of the compound before.
The compound `C[C@@H](n1ncn(-c2ccc(C(F)(F)F)cc2)c1=O)[C@](O)(Cn1cncn1)c1ccccc1F` [Example 17, 2-[(1R,2R)-2-(2-fluorophenyl)-2-hydroxy-1-methyl-3-(1H-1,2,4-triazol-1-yl)propyl]-4-(4-trifluoromethylphenyl)-3(2H,4H)-1,2,4-triazolone] came in with an ED50 of 0.22 mg/kg. The ED50 values of the last two compounds are within 1.5-fold of each other.
For the compound `C[C@@H](n1cnn(-c2ccc(OCC(F)(F)C(F)F)cc2)c1=O)[C@](O)(Cn1cncn1)c1ccc(F)cc1` [Example 28, 4-[(1R,2R)-2-(4-fluorophenyl)-2-hydroxy-1-methyl-3-(1H-1,2,4-triazol-1-yl)propyl]-2-[4-(2,2,3,3-tetrafluoropropoxy)phenyl]-3(2H,4H)-1,2,4-triazolone], the 50% effective dose (ED50) stood at 0.71 mg/kg.
